Laboratory results published in paper PMC5459853, “Cathepsin S inhibition combines control of systemic and peripheral pathomechanisms of autoimmune tissue injury” (Scientific Reports, 2017).

Key:
[1] = biological target: Human Cat-S (Homo sapiens, UniProt P25774); assay: Tight-binding kinetic analysis, Z-Phe-Arg-AMC hydrolysis, Morrison equation; assay type: biochemical; conditions: 10 µM Z-Phe-Arg-AMC (= KM), 10 nM Cat-S, pH 6
Protocol: RO5459072 was provided by F. Hoffmann-La Roche, Ltd., Basel, Switzerland. It is a competitive inhibitor of the active site of Cat-S and its nitrile function allows covalent reversible inhibition of Cat-S. The synthesis of RO5459072 has been described in WO 2010121918 and WO 2013068434. Recombinant cathepsins were produced in-house or were purchased from commercial vendors. Initial enzymatic assays to determine isoform-selectivity in vitro were performed as previously described, [23]. […] For this the Cat-S-dependent hydrolysis of the fluorogenic substrate Z-Phe-Arg-AMC (Sigma Aldrich) was followed at various inhibitor concentrations. The active fraction of Cat-S was detemined as 70% with a HPLC assay measuring modification of Cat-S with the covalent inhibitor LHVS. […] All kinetic measurements were performad on a SFM-3000 stopped-flow instrument (Bio-Logic Science Instruments) and data were analyzed with GraphPad Prism v5. […]
active Cat-S converged to [E]0 = 6.9 nM). […] (E) Pharmacodynamics of R05459072 was determined in C57Bl6 mice with increasing amounts of compound as single dose. […]
Supplementary figure 3. […] Plasma levels of IgG1 (A), IgG2a (B), and IgG2b (C) were determined by ELISA at different time points from the initiation (week 11) to the end of treatment (week 19). Data are expressed as means ± SEM (n=8 to 10 in […]

[2] = Plasma exposure on food admix (HPLC-MS/MS) and spleen p10; assay type: in vivo, MRL-(Fas)lpr mice
Protocol: Four-week-old female MRL-(Fas)lpr mice were purchased from Harlan Winkelmann (Borchen, Germany) and kept under pathogen-free conditions in a 12 hour light and dark cycle with free access to food and water. All animal experiments were performed in accordance with the European protection laws of animal welfare, and with approval by the local government authorities Regierung von Oberbayern (reference number: 55.2.1-54-2532.2-11-12). At 11 or 15 weeks of age only mice with proteinuria (Albustix, Bayer AG, Leverkusen, Germany) were randomized into five different groups (n = 10) receiving different medicated diets: Three groups were fed with chow mixed with either 3, 10 or 30 mg/kg/day RO5459072, another group’s chow was mixed with 100 mg/kg/day mycophenolate mofetil (MMF), and one group received a standard diet (vehicle). The dose of MMF was chosen according to several studies reporting strong efficacy on SLE and lupus nephritis in MRL-(Fas)lpr mice[24]–[26]. […] At the age of 19 weeks all mice were sacrificed by cervical dislocation. Blood and urine samples were collected at different time points as indicated. In other experiments 7 week old female MRL-(Fas)lpr mice were randomized into three groups (n = 3) to receive a single intravenous injection of 10 µg sterile recombinant Cat-S and one group receiving vehicle (100 µl sterile PBS). One of the Cat-S groups was pretreated with 30 mg/kg/day RO5459072 starting one week prior to Cat-S injection; another group was pretreated with a total of four daily intra-peritoneal injections of the PAR-2 inhibitor GB83 (10 mg/kg).
Plasma samples were collected from mice during the feeding cycle on weeks 2, 4, 6 and 8 on a variable schedule of individuals after initiation of feeding with the drug-food admix on week 1. The levels in food were calculated to achieve doses of 3, 10 and 30 mg/kg/day. EDTA-treated plasma samples (29 per dose level) were frozen and subsequently analysed for the parent drug by HPLC-MS/MS. A column-trapping method (Phenonenex Luna C18 and Thermo Hypersil Gold C8 HPLC columns eluted with formic acid/water/acetonitrile mixtures on a Waters Acquity HPLC system) was used to separate the drug which was quantified using a Sciex API4000 MS/MS. The analytical range was 10–10,000 ng/ml and a stable label internal standard was used. […] All experiments were performed according to German animal protection laws and had been approved by the local government authorities.

[3] = biological target: Human Cat-B (Homo sapiens, UniProt P07858); assay: Enzymatic isoform-selectivity assay, Cat-B; assay type: biochemical
Protocol: RO5459072 was provided by F. Hoffmann-La Roche, Ltd., Basel, Switzerland. It is a competitive inhibitor of the active site of Cat-S and its nitrile function allows covalent reversible inhibition of Cat-S. The synthesis of RO5459072 has been described in WO 2010121918 and WO 2013068434. Recombinant cathepsins were produced in-house or were purchased from commercial vendors. Initial enzymatic assays to determine isoform-selectivity in vitro were performed as previously described, [23]. […] For this the Cat-S-dependent hydrolysis of the fluorogenic substrate Z-Phe-Arg-AMC (Sigma Aldrich) was followed at various inhibitor concentrations. The active fraction of Cat-S was detemined as 70% with a HPLC assay measuring modification of Cat-S with the covalent inhibitor LHVS. The buffer (100 mM potassium phosphate, 50 mM NaCl, 5 mM EDTA, 5 mM TCEP, pH 6) was thoroughly degassed prior to perfoming measurements to prevent oxidation of the catalytic cystein residue by dissolved oxygen. For the Ki-determination the substrate was employed at 10 µM = KM. All kinetic measurements were performad on a SFM-3000 stopped-flow instrument (Bio-Logic Science Instruments) and data were analyzed with GraphPad Prism v5.

[4] = Acute in vivo pharmacodynamics: splenic p10 induction after oral gavage; design: species or system BALB/c mice; conditions: BALB/c, mouse, plasma; oral gavage 1 mg/kg; read-out: plasma concentration of the inhibitor at maximal p10 induction
Protocol: (§1) For the determination of in-vivo enzyme inhibition activity of Cat-S by RO5459072 BALB/c mice were used. After oral dosing of 0.1 mg/kg to 100 mg/kg of RO5459072, mice were sacrificed after 7 hours and spleens harvested. Invariant chain was quantified by western blot from mouse splenocyte supernatants loaded onto 10% SDS-PAGE gel. Upon transfer onto a nitrocellulose membrane rabbit anti-CD74 (BD Biosciences) was used.
(§2) Supplementary figure 1. Biochemical and pharmacological profile of R05459072. (A) Upregulation of invariant chain p10 levels in human B-cells was estimated by p10 ELISA, upon treatment with increasing concentration of RO5459072. […]
(§3) upregulation in B-cells derived from 6 healthy volunteers. (B) Determination of KM for the fluorogenic substrate Z-Phe-Arg-AMC. (C) Progress curves of hydrolysis of 10 µM Z-Phe-Arg-AMC by 10 nM Cat-S in the presence of no (black dots) or increasing concentration of RO5459072. A linear equation was fitted to the data to determine the slope (solid lines). […]
(§4) the residuals of the fit to the data. (D) Secondary plot of the slopes from panel B as function of RO5459072 concentration (dots with color coding from panel B). The Morrison equation was […]
(§5) active Cat-S converged to [E]0 = 6.9 nM). The dashed red lines indicate the 95 % confidence intervals of the fit to the data. (E) Pharmacodynamics of R05459072 was determined in C57Bl6 mice with increasing amounts of compound as single dose. Plasma levels of compounds were correlated to the upregulation of p10 in spleenocytes.
(§6) Supplementary figure 2. FACS gating strategies used for the different splenic immune cell populations. (A-C) Activated dendritic cells CD11c+CD11b+MHC-II, (D-F) activated macrophages CD11c+F480+MHC-II and (G-H) plasma cells CD138+κ-light chain+
(§7) Supplementary figure 3. Plasma IgG isotypes in MRL-(Fas)lpr mice. Plasma levels of IgG1 (A), IgG2a (B), and IgG2b (C) were determined by ELISA at different time points from the initiation (week 11) to the end of treatment (week 19). Data are expressed as means ± SEM (n=8 to 10 in […]

[5] = biological target: T1, Cat-S (splenic p10 induction) (Mus musculus, UniProt O70370); assay: as above; design: species or system BALB/c mice
T1 construct: from tissue; host or cells: mouse spleen / splenocytes after oral dosing
Protocol: as §1, §2, §3, §4, §5, §6, §7

Chain of Human Cat-S (P25774 115-331): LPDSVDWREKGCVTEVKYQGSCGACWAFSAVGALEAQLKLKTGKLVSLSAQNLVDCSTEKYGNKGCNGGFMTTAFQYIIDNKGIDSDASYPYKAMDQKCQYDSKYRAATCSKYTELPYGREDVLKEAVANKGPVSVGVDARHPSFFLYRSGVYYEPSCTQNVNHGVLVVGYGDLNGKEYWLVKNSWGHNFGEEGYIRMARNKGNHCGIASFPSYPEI

- Ki [1]: 0.066 ± 0.025 nM
- mean plasma concentration (SD) ([2]; 3 mg/kg/day food admix): 172 ± 58.4 ng/mL
- mean plasma concentration (SD) ([2]; 10 mg/kg/day food admix): 648 ± 142 ng/mL
- mean plasma concentration (SD) ([2]; 30 mg/kg/day food admix): 2660 ± 575 ng/mL
- concentration at 8 weeks ([2]; mouse, plasma, oral, food admix 262 mg/kg of food, exposure dose 30 mg/kg, over 8 weeks, female MRL-(Fas)lpr mice, read-out: stable plasma levels): 400 to 600 ng/mL
- IC50 [3]: > 1000 nM
- IC50, Human Cat-B [3]: No sub-micro molar inhibition
- concentration at 7 h [4]: 17 nM
- dose of maximal splenic p10 induction ([5]; oral gavage, single doses 0.1–100 mg/kg, spleens after 7 hours): 1 mg/kg
- EC50 ([5]; single oral dose, mice, read-out: p10/li in vivo EC50 (plasma level vs p10 upregulation in splenocytes)): 17 nM
Compound: Cn1cc(-c2ccc(S(=O)(=O)[C@@H]3C[C@@H](C(=O)NC4(C#N)CC4)N(C(=O)C4(C(F)(F)F)CC4)C3)c(C(F)(F)F)c2)cn1 [RO5459072]
- p10 fragment accumulation in the spleen ([2]; food admix, MRL-(Fas)lpr mice): robust p10 fragment accumulation
